Measurements as given in patent US20200095241A1, “SUBSTITUTED 1,2,4-THIADIAZOLYLPYRROLONES AND 1,2,4-THIADIAZOLYLHYDANTOINS AND SALTS THEREOF AND USE THEREOF AS HERBICIDES” (Bayer CropScience Aktiengesellschaft, priority 2016, published 2020).

How the values were obtained:
[1] = tested on: Setaria viridis; test: Post-emergence herbicidal action; type: in vivo; settings: Setaria viridis, 504 h, 320 g/ha, about 3 weeks after treatment, read-out: Setaria viridis, herbicidal activity rated visually
Description: (§1) Seeds of monocotyledonous and dicotyledonous weeds and crop plants were placed in sandy loam in plastic or wood-fiber pots, covered with soil and cultivated in a greenhouse under controlled growth conditions. 2 to 3 weeks after sowing, the test plants were treated at the one-leaf stage. The compounds of the invention, formulated in the form of wettable powders (WP) or as emulsion concentrates (EC), were then sprayed onto the green parts of the plants as aqueous suspension or emulsion with addition of 0.5% additive at a water application rate of 600 l/ha (converted). After the test plants had been kept in the greenhouse under optimum growth conditions for about 3 weeks, the activity of the preparations was rated visually in comparison to untreated controls. For example, 100% activity=the plants have died, 0% activity=like control plants. Tables A1 to A12 below show the effects of selected compounds of the general formula (I) according to Tables I.1 to I.44 on various harmful plants and an application rate corresponding to 1280 g/ha or 320 g/ha, which were obtained by the experimental procedure mentioned above.

[2] = tested on: Stellaria media; test: Post-emergence herbicidal action; type: in vivo; settings: Stellaria media, 504 h, 320 g/ha, about 3 weeks after treatment, read-out: Stellaria media, herbicidal activity rated visually
Description: as §1

[3] = tested on: Viola tricolor; test: Post-emergence herbicidal action; type: in vivo; settings: 504 h, 320 g/ha, about 3 weeks after treatment, read-out: Viola tricolor, herbicidal activity rated visually
Description: as §1

[4] = target: T1, photosystem II (PS II) (Spinacia oleracea, UniProt P69560); test: Measurement of the PS II activity in thylakoid membranes (DCPIP reduction); type: biochemical; settings: 100 μM test compound, spinach thylakoid membranes, DCPIP 120 μM, 10 min at 22° C. with exposure to light; for inhibition at 100 µM (stock): read-out: Effect (inhibition of PS II activity)
T1 construct: the chloroplasts were osmotically ruptured and the thylakoid membranes were then obtained by centrifugation; from tissue; host or cells: fresh spinach leaves; thylakoid membranes isolated from chloroplasts
Description: Cooled fresh spinach leaves were comminuted and homogenized in 50 mM phosphate buffer, pH 6.8. 10 mM KCl, 0.34 M sucrose (sucrose buffer) (blender, 1 g of plant material/ml). The homogenate was subsequently filtered through 4 layers of Miracloth and the chloroplasts were isolated by centrifugation, i.e. 10 min of centrifugation at 4400×g (4° C.). The sediment was suspended in 25 ml of sucrose buffer and re-centrifuged for 10 min at 4400×g (4° C.). The sediment was then suspended in 40 ml of 50 mM phosphate buffer, pH 6.8, 10 mM KCl, without sucrose. In this step, the chloroplasts were osmotically ruptured and the thylakoid membranes were then obtained by centrifugation (10 min, 4400×g, 4° C.). The membrane sediment was finally suspended in 20 ml of 50 mM phosphate buffer, pH 6.8, 10 mM KCl. Following protein determination and activity determination, the membrane suspension was divided into aliquots and frozen in liquid nitrogen. The aliquots were stored at −80° C. Under these conditions, the photosystem II preparation was storage stable for at least three months. The activity determination of photosystem II (PS II) was then carried out using the following test principle:
The electron transfer from PS II to an artificial electron acceptor, 2,6-dichlorophenolindophenol (DCPIP), was measured with exposure to light. The concentration of the blue oxidized form of DCPIP was determined spectrophotometrically at wavelength λ=595 nm. […] The activity determination was carried out in microtiter plates (96 cavities) in a reaction volume of 200 μl. Here, 155 μl of dilute membrane suspension were initially charged in 50 mM of phosphate buffer, pH 6.8, 10 mM KCl. Depending on the activity of the PS II preparation, the dilution was adjusted such that the measurement of the decrease in absorption (λ=595 nm) was linear for at least 10 min. In each case 5 μl solution of the test compounds of a concentration of 100 μM in DMSO were added to the enzyme suspension; controls contained 5 μl DMSO; the final concentration of DMSO in the reaction batch was thus 2.5% (v/v); this concentration had no adverse effect on the enzymatic activity. On each microtiter plate, a known PS II inhibitor, for example metribuzin, was used as standard, which allowed the quality of the PS II test to be assessed. The reaction was started by addition of 40 μl DCPIP solution (600 μM in distilled water); the final concentration of DCPIP was 120 μM. Measurement of absorption was carried out over a period of 10 min at 22° C. and with exposure to light. Using metribuzin as comparative substance, the results for the efficacy of the compounds of the general formula (I) at 100 μM are stated in the table below using the following classification: ++++ (inhibition≥90%), +++ ([…]≥70%), ++ (70%>inhibition≥50%), + (50%>inhibition≥30%).

[5] = tested on: Stellaria media; test: Pre-emergence herbicidal action; type: in vivo; settings: after about 3 weeks
Description: (§2) Seeds of monocotyledonous and dicotyledonous weed plants and crop plants were placed in plastic or organic planting pots and covered with soil. The compounds of the invention, formulated in the form of wettable powders (WP) or as emulsion concentrates (EC), were then applied onto the surface of the covering soil as aqueous suspension or emulsion with addition of 0.5% additive at a water application rate of 600 l/ha (converted). After the treatment, the pots were placed in a greenhouse and kept under good growth conditions for the test plants. After about 3 weeks, the effect of the preparations was scored visually in comparison with untreated controls as percentages. For example, 100% activity=the plants have died, 0% activity=like control plants. Tables B1 to B15 below show the effects of selected compounds of the general formula (I) according to Tables I.1 to I.44 on various harmful plants and an application rate corresponding to 1280 g/ha or 320 g/ha, which were obtained by the experimental procedure mentioned above.

[6] = tested on: Matricaria inodora; test: Pre-emergence herbicidal action; type: in vivo; settings: 1280 g/ha, after about 3 weeks
Description: as §2

[7] = tested on: Viola tricolor; test: Pre-emergence herbicidal action; type: in vivo; settings: Viola tricolor, 504 h, 320 g/ha, after about 3 weeks, read-out: Viola tricolor, herbicidal effect scored visually
Description: as §2

[8] = tested on: Abutilon theophrasti; test: Post-emergence herbicidal action; type: in vivo; settings: 320 g/ha, about 3 weeks after treatment
Description: as §1

[9] = tested on: Poa annua; test: Pre-emergence herbicidal action; type: in vivo; settings: 1280 g/ha, after about 3 weeks
Description: as §2

[10] = tested on: Setaria viridis; test: Pre-emergence herbicidal action; type: in vivo; settings: 1280 g/ha, after about 3 weeks
Description: as §2

Row | SMILES | Effect (inhibition of PS II activity) [4] | also measured
1 | CCc1nsc(N2C(=O)C(C)=C(C)C2O)n1 (stereo not shown) [I.2-3, 3,4-Dimethyl-5-hydroxy-1-(3-ethyl-1,2,4-thiadiazol-5-yl)-1,5-dihydro-2H-pyrrol-2-one] | – | pest or weed control at 320 g/ha [1]: 80%; pest or weed control at 320 g/ha [2]: 80%; pest or weed control at 320 g/ha [3]: 100%; inhibition at 100 µM (stock) [4]: > 90%; pest or weed control at 320 g/ha ([5]; Stellaria media, 504 h, 320 g/ha, read-out: Stellaria media, herbicidal effect scored visually): 90%; pest or weed control at 1280 g/ha ([6]; Tripleurospermum inodorum, 504 h, read-out: Matricaria inodora, herbicidal effect scored visually): 100%; pest or weed control at 320 g/ha [7]: 100%
2 | CC1=C(C)C(O)N(c2nc(-c3ccccc3)ns2)C1=O (stereo not shown) [I.2-21] | +++ (90%≥inhibition≥70%) | Abutilon theophrasti, herbicidal activity rated visually [8]: 100%; Poa annua, herbicidal effect scored visually [9]: 90%; Stellaria media, herbicidal effect scored visually ([5]; 1280 g/ha): 100%; Matricaria inodora, herbicidal effect scored visually [6]: 90%
3 | COc1ccc(-c2nsc(N3C(=O)C(C)=C(C)C3O)n2)cc1 (stereo not shown) [I.2-83] | ++++ (inhibition≥90%) | –
4 | COCc1nsc(N2C(=O)C(C)=C(C)C2O)n1 (stereo not shown) [I.2-122, 3,4-Dimethyl-5-hydroxy-1-(3-methoxymethyl-1,2,4-thiadiazol-5-yl)-1,5-dihydro-2H-pyrrol-2-one] | – | inhibition at 100 µM (stock) [4]: 50 to 70%
5 | CC1=C(C)C(O)N(c2nc(C(C)(C)C)ns2)C1=O (stereo not shown) [I.2-288] | +++ (90%≥inhibition≥70%) | Setaria viridis, herbicidal effect scored visually [10]: 100%; Poa annua, herbicidal effect scored visually [9]: 90%; Stellaria media, herbicidal effect scored visually ([5]; 1280 g/ha): 100%; Matricaria inodora, herbicidal effect scored visually [6]: 90%
6 | CC1=C(C)C(O)N(c2nc(C3(C)CC3)ns2)C1=O (stereo not shown) [I.2-335] | ++++ (inhibition≥90%) | –
7 | CC1=C(C)C(O)N(c2nc(SCCOC(F)(F)C(F)(F)F)ns2)C1=O (stereo not shown) [I.2-339] | ++++ (inhibition≥90%) | –
8 | CCCc1nsc(N2C(=O)C(Cl)=C(C)C2O)n1 (stereo not shown) [I.3-4] | ++++ (inhibition≥90%) | –
9 | COCc1nsc(N2C(=O)C(Cl)=C(C)C2O)n1 (stereo not shown) [I.3-122] | +++ (90%≥inhibition≥70%) | –
10 | CC1=C(Cl)C(=O)N(c2nc(C3(C)CC3)ns2)C1O (stereo not shown) [I.3-335, 3-Chloro-4-methyl-5-hydroxy-1-[3-(1-methylcycloprop-1-yl)-1,2,4-thiadiazol-5-yl]-1,5-dihydro-2H-pyrrol-2-one] | – | inhibition at 100 µM (stock) [4]: > 90%
11 | CC1=C(Cl)C(O)N(c2nc(C)ns2)C1=O (stereo not shown) [I.4-2] | +++ (90%≥inhibition≥70%) | –
12 | CCc1nsc(N2C(=O)C(C)=C(Cl)C2O)n1 (stereo not shown) [I.4-3] | ++++ (inhibition≥90%) | –
13 | CCCc1nsc(N2C(=O)C(C)=C(Cl)C2O)n1 (stereo not shown) [I.4-4] | ++++ (inhibition≥90%) | –
14 | CC1=C(Cl)C(O)N(c2nc(C3CC3)ns2)C1=O (stereo not shown) [I.4-11, 4-chloro-3-methyl-5-hydroxy-1-(3-cyclopropyl-1,2,4-thiadiazol-5-yl)-1,5-dihydro-2H-pyrrol-2-one] | – | inhibition at 100 µM (stock) [4]: > 90%
15 | CC1=C(Cl)C(O)N(c2nc(C3(C)CC3)ns2)C1=O (stereo not shown) [I.4-335, 4-chloro-3-methyl-5-hydroxy-1-[3-(1-methylcycloprop-1-yl)-1,2,4-thiadiazol-5-yl]-1,5-dihydro-2H-pyrrol-2-one] | – | inhibition at 100 µM (stock) [4]: 50 to 70%
16 | COc1nsc(N2C(=O)C(C)=C(Cl)C2O)n1 (stereo not shown) [I.4-363] | ++++ (inhibition≥90%) | –
17 | COC(C)(C)c1nsc(N2C(=O)C(C)=C(Cl)C2O)n1 (stereo not shown) [I.4-370, 4-Chloro-3-methyl-5-hydroxy-1-[3-(2-methoxyprop-2-yl)-1,2,4-thiadiazol-5-yl]-1,5-dihydro-2H-pyrrol-2-one] | – | pest or weed control at 1280 g/ha ([5]; Stellaria media, 504 h, 1280 g/ha, read-out: Stellaria media, herbicidal effect scored visually): 100%
18 | CCc1nsc(N2C(=O)C(Br)=C(C)C2O)n1 (stereo not shown) [I.5-3] | ++++ (inhibition≥90%) | –
19 | CCCc1nsc(N2C(=O)C(Br)=C(C)C2O)n1 (stereo not shown) [I.5-4] | ++++ (inhibition≥90%) | –
20 | CCc1nsc(N2C(=O)C(C)=C(Br)C2O)n1 (stereo not shown) [I.6-3] | ++++ (inhibition≥90%) | –
21 | CCCc1nsc(N2C(=O)C(C)=C(Br)C2O)n1 (stereo not shown) [I.6-4] | ++++ (inhibition≥90%) | –
22 | CC1=C(Br)C(O)N(c2nc(C3CC3)ns2)C1=O (stereo not shown) [I.6-11] | ++++ (inhibition≥90%) | –
23 | O=C1C(Cl)=C(C2CCCCC2)C(O)N1c1nc(C2CC2)ns1 (stereo not shown) [I.9-11] | ++ (70%>inhibition≥50%) | –
24 | CC(C)c1nsc(N2C(=O)C(C3CCCCC3)=C(Cl)C2O)n1 (stereo not shown) [I.10-5] | +++ (90%≥inhibition≥70%) | –
25 | CCc1nsc(N2C(=O)N(C)CC2O)n1 (stereo not shown) [I.13-3] | +++ (90%≥inhibition≥70%) | –
26 | CN1CC(O)N(c2nc(C(C)(C)C)ns2)C1=O (stereo not shown) [I.13-288] | ++ (70%>inhibition≥50%) | –
